In paper PMC5297809, “Design, Synthesis and Antifungal Activity Evaluation of New Thiazolin-4-ones as Potential Lanosterol 14α-Demethylase Inhibitors” (International Journal of Molecular Sciences, 2017):
≈ marks a conversion by molar mass, not a printed value. Like-named read-outs stand apart in the source and are kept apart here.

Key:
[1] = test system: Candida albicans ATCC 10231; assay: cup-plate agar diffusion method, inhibition zone diameters; assay type: cell-based
[2] = test system: Candida albicans ATCC 10231; assay: broth microdilution MIC/MFC; assay type: cell-based
[3] = test system: Candida albicans ATCC 18804; assay: broth microdilution MIC/MFC; assay type: cell-based
Candida krusei ATCC 6258 = assay: broth microdilution MIC/MFC; assay type: cell-based; conditions: Pichia kudriavzevii, ATCC6258
[4] = test system: Candida parapsilosis ATCC 22019; assay: broth microdilution MIC/MFC; assay type: cell-based; conditions: Lodderomyces parapsilosis, ATCC22019
[5] = lipophilicity by RP-TLC with PCA; assay type: physicochemical; parameters: key to P1 / P2: PCA scores of compounds computed from Rf data; conditions: for RM0: RP-TLC C18, water-i-propanol 45-65%, intercept, RM extrapolated to 0% organic modifier (lipophilicity); for b: RP-TLC regression slope (specific hydrophobic surface area); for P1: score of first principal component of Rf data, low P1 = highly lipophilic; for P2: score of second principal component of Rf data
Experimental: The lipophilic character of twenty thiazolin-4-one derivatives was assessed with the help of the principal component analysis (PCA) based on the reversed-phase thin-layer chromatography (RP-TLC) data.
The chromatographic behavior of the test compounds was studied on C18 silicagel bonded 60 RP-180F254S TLC (20 × 20 cm) plates, purchased from Merck (Darmstadt, Germany). The test compounds’ solutions (1 mg/mL) were prepared by dissolving the samples in DMSO (Merck, Darmstadt, Germany). The plates were manually spotted with 3 µL aliquots of each solution at 10 mm from the base and 5 mm from the edge of the plate, leaving a 10 mm distance between successive spots, and developed by the ascending technique, without preconditioning. Chromatography was performed in a normal developing chamber at room temperature (~24 °C), the developing distance being of 9 cm. The solvent system used as mobile phase consisted of a water-i-propanol mixture, with a varying content of organic modifier (i-propanol—concentration ranged between 45% and 65% (v/v), with 5% vol. increments). Before the development, the chamber was saturated with the mobile phase for 15 min. After being developed, the dried plates were visually inspected under the UV light (λ = 254 nm), each spot was clearly marked and its distance was manually measured in order to calculate the Rf values. The spots of the compounds 3f, 10 and 11 were not visible in UV light, thus their Rf values could not be calculated, therefore they were excluded from this assay.
Based on the Rf values, one of the most common lipophilic estimator, meaning the isocratic retention factor RM was calculated using the Bate-Smith and Westall equations [40].
RP-TLC provides retention data in the form of Rf and the corresponding RM values (Equation (2)) that can be used to derive chromatographic descriptors for estimating lipophilicity: RM0, b and PCA. The most popular lipophilicity descriptor estimated by this method is RM and it is derived from the retention factor (Rf) according to the following formula: RM = log[(1/Rf) − 1] (2) where Rf is calculated on the basis of migration distance of a compound and the solvent front.
As RM value (related to the molecular lipophilicity) depends linearly on the concentration of the organic modifier in the mobile phase, the value is extrapolated to pure water as mobile phase. In order to increase the accuracy of the lipophilicity determination, the RM values extrapolated to zero organic modifier concentration (RM0) have been calculated from the linear correlation between the RM values and the concentration of the organic component of the mobile phase: RM = RM0 + bc (3) where RM0 is the lipophilicity estimation parameter, RM is the retention of the solute, b is the slope, and c is the concentration of the mobile phase organic modifier (i-propanol).
The intercept (RM0) in Equation (3) represents the extrapolated RM values at 0% organic modifier.
PCA was performed on the obtained retention parameters with the help of XL-STAT extension. […] PCA gave the coordinates (scores) of the studied compounds and also the loadings of the variables (solvents) on the principal components.

[6] = ATCC10231, C. albicans ATCC 10231, 1 mg/mL in DMSO, 20 µg/well, mean of three ± SD, read-out: inhibition zone diameters
[7] = ATCC10231, C. albicans ATCC 10231, read-out: MFC
[8] = ATCC10231, C. albicans ATCC 10231, read-out: MIC
[9] = ATCC18804, C. albicans ATCC 18804, read-out: MFC
[10] = ATCC18804, C. albicans ATCC 18804, read-out: MIC
[11] = C. krusei ATCC 6258, read-out: MFC
[12] = C. krusei ATCC 6258, read-out: MIC
[13] = C. parapsilosis ATCC 22019, read-out: MFC
[14] = C. parapsilosis ATCC 22019, read-out: MIC

Structure (SMILES) | zone of inhibition at 1000 µg/mL [1, 6] [mm] | MFC [2, 7] [µg/mL] | MIC [2, 8] [µg/mL] | MFC [3, 9] [µg/mL] | MIC [3, 10] [µg/mL] | MFC (Candida krusei ATCC 6258; [11]) [µg/mL] | MIC (Candida krusei ATCC 6258; [12]) [µg/mL] | MFC [4, 13] [µg/mL] | MIC [4, 14] [µg/mL] | RM0 [5] | b [5] | P1 [5] | P2 [5] | melting point [°C] | other results
C=CCNC1=NC(=O)CS1 [Compound 2, 2-(allylamino)thiazol-4(5H)-one] | 20 ± 0.2 | 0.24 (≈ 1.54 µM) | 0.12 (≈ 0.768 µM) | 0.48 (≈ 3.07 µM) | 0.24 (≈ 1.54 µM) | 0.48 (≈ 3.07 µM) | 0.24 (≈ 1.54 µM) | 0.24 (≈ 1.54 µM) | 0.12 (≈ 0.768 µM) | 0.0414 | −1.1059 | 4.335 | 0.879 | 90 to 91 | –
C=CCNC1=NC(=O)C(=Cc2cccc(Cl)c2)S1 [Compound 3a, 2-(Allylamino)-5-(3-chlorobenzylidene)thiazol-4(5H)-one] | 20 ± 0.5 | 31.2 (≈ 112 µM) | 31.2 (≈ 112 µM) | 31.2 (≈ 112 µM) | 15.6 (≈ 56 µM) | 31.2 (≈ 112 µM) | 15.6 (≈ 56 µM) | 15.6 (≈ 56 µM) | 7.81 (≈ 28 µM) | 2.0801 | −3.6152 | −0.090 | −0.268 | 198 | –
C=CCNC1=NC(=O)C(=Cc2ccc(Cl)cc2Cl)S1 [Compound 3b, 2-(Allylamino)-5-(2,4-dichlorobenzylidene)thiazol-4(5H)-one] | 20 ± 0.5 | 31.2 (≈ 99.8 µM) | 31.2 (≈ 99.8 µM) | 15.6 (≈ 49.9 µM) | 15.6 (≈ 49.9 µM) | 31.2 (≈ 99.8 µM) | 15.6 (≈ 49.9 µM) | 15.6 (≈ 49.9 µM) | 7.81 (≈ 24.9 µM) | 2.2398 | −3.6102 | −1.263 | −0.062 | 238 | –
C=CCNC1=NC(=O)C(=Cc2ccc([N+](=O)[O-])cc2)S1 [Compound 3c, 2-(Allylamino)-5-(4-nitrobenzylidene)thiazol-4(5H)-one] | 18 ± 1 | 31.2 (≈ 108 µM) | 31.2 (≈ 108 µM) | 31.2 (≈ 108 µM) | 31.2 (≈ 108 µM) | 15.6 (≈ 54 µM) | 15.6 (≈ 54 µM) | 31.2 (≈ 108 µM) | 15.6 (≈ 54 µM) | 1.7553 | −3.314 | 1.049 | −0.259 | 265 | –
C=CCNC1=NC(=O)C(=Cc2csc(-c3ccccc3)n2)S1 [Compound 3d, 2-(Allylamino)-5-((2-phenylthiazol-4-yl)methylene)thiazol-4(5H)-one] | 20 ± 0.2 | 62.5 (≈ 191 µM) | 31.2 (≈ 95.4 µM) | 62.5 (≈ 191 µM) | 31.2 (≈ 95.4 µM) | 31.2 (≈ 95.4 µM) | 15.6 (≈ 47.7 µM) | 15.6 (≈ 47.7 µM) | 7.81 (≈ 23.9 µM) | 2.2119 | −3.7366 | −0.549 | −0.241 | 339 | –
C=CCNC1=NC(=O)C(=Cc2coc3ccc(Cl)cc3c2=O)S1 [Compound 3e, 2-(Allylamino)-5-((6-chloro-4-oxo-4H-chromen-3-yl)methylene)thiazol-4(5H)-one] | 20 ± 0.5 | 62.5 (≈ 180 µM) | 31.2 (≈ 90.1 µM) | 31.2 (≈ 90.1 µM) | 15.6 (≈ 45 µM) | 31.2 (≈ 90.1 µM) | 15.6 (≈ 45 µM) | 15.6 (≈ 45 µM) | 7.81 (≈ 22.5 µM) | 2.2869 | −3.9184 | −0.349 | −0.354 | 299 to 301 | –
C=CCNC1=NC(=O)C(=Cc2cccc(Br)c2)S1 [Compound 3f, 2-(Allylamino)-5-(3-bromobenzylidene)thiazol-4(5H)-one] | 22 ± 0.2 | 3.9 (≈ 12.1 µM) | 1.95 (≈ 6.03 µM) | 15.6 (≈ 48.3 µM) | 7.81 (≈ 24.2 µM) | 7.81 (≈ 24.2 µM) | 3.9 (≈ 12.1 µM) | 3.9 (≈ 12.1 µM) | 1.95 (≈ 6.03 µM) | – | – | – | – | 330 | –
C=CCNC1=NC(=O)C(=Cc2ccc(O)c(OC)c2)S1 [Compound 3g, 2-(Allylamino)-5-(4-hydroxy-3-methoxybenzylidene)thiazol-4(5H)-one] | 22 ± 0.2 | 1.95 (≈ 6.72 µM) | 0.48 (≈ 1.65 µM) | 0.97 (≈ 3.34 µM) | 0.48 (≈ 1.65 µM) | 1.95 (≈ 6.72 µM) | 0.48 (≈ 1.65 µM) | 0.48 (≈ 1.65 µM) | 0.24 (≈ 0.827 µM) | 0.6734 | −1.9546 | 3.365 | 0.453 | 240 | –
C=CCNC1=NC(=O)C(=Cc2ccc(O)cc2)S1 [Compound 3h, 2-(Allylamino)-5-(4-hydroxybenzylidene)thiazol-4(5H)-one] | 20 ± 0.5 | 0.48 (≈ 1.84 µM) | 0.24 (≈ 0.922 µM) | 0.97 (≈ 3.73 µM) | 0.48 (≈ 1.84 µM) | 0.97 (≈ 3.73 µM) | 0.24 (≈ 0.922 µM) | 0.97 (≈ 3.73 µM) | 0.12 (≈ 0.461 µM) | 1.1465 | −2.6897 | 2.905 | 0.056 | 338 | –
O=C1CSC(Nc2ccccc2)=N1 [Compound 5, 2-(phenylamino)thiazol-4(5H)-one] | – | – | – | – | – | – | – | – | – | 0.9459 | −2.2931 | 2.796 | 0.238 | – | zone of inhibition at 1000 µg/mL ([1]; ATCC10231, read-out: inhibition zone diameters): 22 ± 0.5 mm; MFC ([2]; ATCC10231): 0.48 µg/mL (≈ 2.5 µM); MIC ([2]; ATCC10231): 0.24 µg/mL (≈ 1.25 µM); MFC ([3]; ATCC18804): 0.24 µg/mL (≈ 1.25 µM); MIC ([3]; ATCC18804): 0.12 µg/mL (≈ 0.624 µM); MFC (Candida krusei ATCC 6258): 0.12 µg/mL (≈ 0.624 µM); MIC (Candida krusei ATCC 6258): 0.06 µg/mL (≈ 0.312 µM); MFC [4]: 0.12 µg/mL (≈ 0.624 µM); MIC [4]: 0.06 µg/mL (≈ 0.312 µM)
O=C1N=C(Nc2ccccc2)SC1=Cc1cccc(Cl)c1 [Compound 6a, 5-(3-Chlorobenzylidene)-2-(phenylamino)thiazol-4(5H)-one] | 20 ± 0.5 | 31.2 (≈ 99.3 µM) | 15.6 (≈ 49.6 µM) | 15.6 (≈ 49.6 µM) | 7.81 (≈ 24.8 µM) | 3.9 (≈ 12.4 µM) | 7.81 (≈ 24.8 µM) | 3.9 (≈ 12.4 µM) | 3.9 (≈ 12.4 µM) | 2.1738 | −3.9258 | 0.485 | −0.534 | 278 to 280 | –
O=C1N=C(Nc2ccccc2)SC1=Cc1ccc(Cl)cc1Cl [Compound 6b, 5-(2,4-Dichlorobenzylidene)-2-(phenylamino)thiazol-4(5H)-one] | 20 ± 1 | 31.2 (≈ 89.5 µM) | 15.6 (≈ 44.7 µM) | 31.2 (≈ 89.5 µM) | 15.6 (≈ 44.7 µM) | 7.81 (≈ 22.4 µM) | 7.81 (≈ 22.4 µM) | 3.9 (≈ 11.2 µM) | 3.9 (≈ 11.2 µM) | 2.4679 | −4.0118 | −1.253 | −0.186 | 204 to 206 | –
O=C1CSC(Nc2cccc3ccccc23)=N1 [Compound 8, 2-(naphthalen-1-ylamino)thiazol-4(5H)-one] | 24 ± 1 | 0.24 (≈ 0.99 µM) | 0.12 (≈ 0.495 µM) | 0.24 (≈ 0.99 µM) | 0.12 (≈ 0.495 µM) | 0.12 (≈ 0.495 µM) | 0.06 (≈ 0.248 µM) | 0.12 (≈ 0.495 µM) | 0.03 (≈ 0.124 µM) | 1.6225 | −3.0931 | 1.125 | −0.163 | – | –
O=C1CSC(c2ccccc2)=N1 [Compound 11, 2-phenylthiazol-4(5H)-one] | 18 ± 1 | 0.48 (≈ 2.71 µM) | 0.24 (≈ 1.35 µM) | 0.24 (≈ 1.35 µM) | 0.12 (≈ 0.677 µM) | 0.48 (≈ 2.71 µM) | 0.12 (≈ 0.677 µM) | 0.12 (≈ 0.677 µM) | 0.06 (≈ 0.339 µM) | – | – | – | – | – | –
